According to patent US12435095B2, “Substituted morpholines as ATR kinase inhibitors” (Shanghai Annova Biotechnology Co., Ltd., priority 2021, dated 2025):
Where two headings read alike, the source gives them in different places.

Test system: human colon cancer LoVo cells
Assay: Cell proliferation inhibition assay (CellTiter-Glo)
Type: cell-based
Details: for IC50 / Emax: Homo sapiens; for IC50: read-out: LoVo IC50; for Emax: read-out: Max Inhibition
Description: Experimental method: A CellTiter-Glo cell viability assay kit was used to test the inhibitory effect of the compounds on the in vitro proliferation of human colon cancer LoVo cells.
Experimental materials: LoVo cells (ATCC, Cat. No. CCL-29); F-12K medium (Invitrogen, Cat. No. 21127-022); fetal bovine serum (Biological Industries, Cat. No. 04-002-1A); GlutaMAX (Gibco, Cat. No. 35050-061); 0.25% trypsin-EDTA (Invitrogen, Cat. No. 25200-072); CellTiter-Glo kit (Promega, Cat. No. G7558).
Experimental procedure: (1) F-12K medium, fetal bovine serum and GlutaMAX were formulated into a complete medium for culturing LoVo cells; (2) well-grown LoVo cells were taken, digested with trypsin and transferred to a centrifuge tube, and centrifuged; the supernatant was discarded, and cells were resuspended by adding a fresh medium and counted by a Vi-CELL XR cell counter; the density of the cell suspension was adjusted to 25,000 to 30,000 cells/mL, and the cell suspension was added at 100 μL/well in a 96-well cell culture plate, while a blank control group was set up with no cells added, and the cell culture plate was incubated in a carbon dioxide incubator overnight; (3) a DMSO solution of the compound to be tested was dispensed into the above 96-well cell culture plate using an HP D300 ultra-micro sampler, with 0.5 μL of the solution per well and 10 concentrations for each compound (3× dilution), while a DMSO control group with no compound added was set up, and the plate was continued to be incubated in a carbon dioxide incubator for 96 hours; (4) the cell culture plate was taken out and equilibrated to room temperature, with 100 μL of a CellTiter-Glo reagent added to each well, and then the plate was kept away from light, shaken for 10 minutes and then incubated for 10 minutes; (5) the cell culture plate was put into EnSpire for plate reading, and the luminescence value RLU was recorded.
Data processing: (1) The inhibition rate was calculated from the luminescence values: “RLUDMSO” is the luminescence value of the DMSO control group without compound, “RLUblank” is the luminescence value of the blank control group without cells, and “RLUcompound” is the luminescence value of the compound test group, and the inhibition rate=[1−(RLUcompound−RLUblank)/(RLUDMSO−RLUblank)]×100%; (2) with curve fitting using the Excel add-on XLFit, the IC50 value was calculated.

[1] = LoVo cells, 96 hours, CellTiter-Glo

With C[C@@H]1COCCN1c1cc(-c2cccc3[nH]ccc23)nc2c1ccn2S(C)(=O)=O [Compound 2, (R)-4-(6-(1H-indol-4-yl)-1-(methylsulfonyl)-1H-pyrrolo[2,3-b]pyridin-4-yl)-3-methylmorpholine] the IC50 [1] was 500 nM and the “Max Inhibition” value [1] was 94%.
For C[C@@H]1COCCN1c1cc(-c2cncc3[nH]ccc23)nc2c1ccn2S(C)(=O)=O [Compound 3, (R)-3-methyl-4-(1-(methylsulfonyl)-6-(1H-pyrrolo[2,3-c]pyridin-4-yl)-1H-pyrrolo[2,3-b]pyridin-4-yl)morpholine], the IC50 [1] was 430 nM and the “Max Inhibition” value [1] was 93%.
For C[C@@H]1COCCN1c1cc(-c2ccnc3[nH]ccc23)nc2c1ccn2CS(C)(=O)=O [Compound 4′, reference compound], the IC50 [1] was 2340 nM.
In the case of CC(n1ccc2c(N3CCOC[C@H]3C)cc(-c3ccnc4[nH]ccc34)nc21)S(C)(=O)=O (stereo partly shown) [Compound 5′, reference compound], the IC50 [1] is reported as 1880 nM.
For C[C@@H]1COCCN1c1cc(-c2cc(F)cc3[nH]ccc23)nc2c1ccn2S(C)(=O)=O [Compound 7, (R)-4-(6-(6-fluoro-1H-indol-4-yl)-1-(methylsulfonyl)-1H-pyrrolo[2,3-b]pyridin-4-yl)-3-methylmorpholine], the IC50 [1] was 420 nM and the “Max Inhibition” value [1] was 95%.
Molecule CC(C)S(=O)(=O)n1ccc2c(N3CCOC[C@H]3C)cc(-c3ccnc4[nH]ccc34)nc21 [Compound 14, (R)-4-(1′-(isopropylsulfonyl)-1H,1′H-[4,6′-dipyrrolo[2,3-b]pyridin]-4′-yl)-3-methylmorpholine] has an IC50 [1] of 2130 nM and an Emax [1] of 93%.
Molecule C[C@@H]1COCCN1c1cc(-c2ccnc3[nH]ccc23)nc2c1ccn2S(=O)(=O)C1CC1 [Compound 15, (R)-4-(1′-(cyclopropylsulfonyl)-1H,1′H-[4,6′-dipyrrolo[2,3-b]pyridin]-4′-yl)-3-methylmorpholine] has an IC50 [1] of 1270 nM and an Emax [1] of 94%.
Work on C[C@@H]1COCCN1c1cc(-c2ccnc3[nH]ccc23)nc2c1ccn2S(=O)(=O)N(C)C [Compound 16, (R)—N,N-dimethyl-4′-(3-methylmorpholinyl)-1H,1′H-[4,6′-dipyrrolo[2,3-b]pyridine]-1′-sulfamide] yielded an IC50 [1] of 1820 nM and an Emax [1] of 93%.
With C[C@@H]1COCCN1c1nc(-c2ccnc3[nH]ccc23)nc2c1ccn2S(C)(=O)=O [Compound 17, (R)-3-methyl-4-(7-(methylsulfonyl)-2-(1H-pyrrolo[2,3-b]pyridin-4-yl)-7H-pyrrolo[2,3-d]pyrimidin-4-yl)morpholine] the IC50 [1] was 170 nM and the “Max Inhibition” value [1] was 93%.
C[C@@H]1COCCN1c1nc(-c2cccc3[nH]ccc23)nc2c1ccn2S(C)(=O)=O [Compound 18, (R)-4-(2-(1H-indol-4-yl)-7-(methylsulfonyl)-7H-pyrrolo[2,3-d]pyrimidin-4-yl)-3-methylmorpholine] was tested, and the IC50 [1] was 250 nM and the “Max Inhibition” value [1] was 92%.
C[C@@H]1COCCN1c1nc(-c2cncc3[nH]ccc23)nc2c1ccn2S(C)(=O)=O [Compound 19, (R)-3-methyl-4-(7-(methylsulfonyl)-2-(1H-pyrrolo[2,3-c]pyridin-4-yl)-7H-pyrrolo[2,3-d]pyrimidin-4-yl)morpholine] was tested, and the IC50 [1] was 70 nM and the “Max Inhibition” value [1] was 90%.
For C[C@@H]1COCCN1c1nc(-c2cc(F)cc3[nH]ccc23)nc2c1ccn2S(C)(=O)=O [Compound 20, (R)-4-(2-(6-fluoro-1H-indol-4-yl)-7-(methylsulfonyl)-7H-pyrrolo[2,3-d]pyrimidin-4-yl)-3-methylmorpholine], the IC50 [1] was 490 nM and the “Max Inhibition” value [1] was 91%.
For C[C@@H]1COCCN1c1nc(-c2ccnc3[nH]ccc23)nc2c1ccn2S(=O)(=O)CCO [Compound 21, (R)-2-((4-(3-methylmorpholinyl)-2-(1H-pyrrolo[2,3-b]pyridin-4-yl)-7H-pyrrolo[2,3-d]pyrimidin-7-yl)sulfonyl)ethanol], the IC50 [1] was 710 nM and the Emax [1] was 92%.
C[C@@H]1COCCN1c1nc(-c2ccnc3[nH]ccc23)nc2c1ncn2S(C)(=O)=O [Compound 22, (R)-3-methyl-4-(9-(methylsulfonyl)-2-(1H-pyrrolo[2,3-b]pyridin-4-yl)-9H-purin-6-yl)morpholine] was tested, and the IC50 [1] was 1040 nM and the “Max Inhibition” value [1] was 93%.
With C[C@@H]1COCCN1c1nc(-c2ccnc3[nH]ccc23)nc2c1cnn2S(C)(=O)=O [Compound 23, (R)-3-methyl-4-(1-(methylsulfonyl)-6-(1H-pyrrolo[2,3-b]pyridin-4-yl)-1H-pyrazolo[3,4-d]pyrimidin-4-yl)morpholine] the “Max Inhibition” value [1] was 92%.
In the case of C[C@@H]1COCCN1c1cc(-c2ccnc3[nH]ccc23)nc2c1ncn2S(C)(=O)=O [Compound 24, (R)-3-methyl-4-(3-(methylsulfonyl)-5-(1H-pyrrolo[2,3-b]pyridin-4-yl)-3H-imidazo[4,5-b]pyridin-7-yl)morpholine], the IC50 [1] is reported as 1020 nM and the “Max Inhibition” value [1] is reported as 92%.
In the case of C[C@@H]1COCCN1c1nc(-c2cncc3[nH]ccc23)cc2c1ncn2S(C)(=O)=O [Compound 25, (R)-3-methyl-4-(1-(methylsulfonyl)-6-(1H-pyrrolo[2,3-c]pyridin-4-yl)-1H-imidazo[4,5-c]pyridin-4-yl)morpholine], the IC50 [1] is reported as 240 nM and the “Max Inhibition” value [1] is reported as 89%.
For C[C@@H]1COCCN1c1nc(-c2ccnc3[nH]ccc23)cc2c1ccn2S(C)(=O)=O [Compound 26, (R)-3-methyl-4-(1-(methylsulfonyl)-6-(1H-pyrrolo[2,3-b]pyridin-4-yl)-1H-pyrrolo[3,2-c]pyridin-4-yl)morpholine], the IC50 [1] was 740 nM and the “Max Inhibition” value [1] was 92%.
With C[C@@H]1COCCN1c1nc(-c2nc3ccccc3[nH]2)nc2c1ccn2S(C)(=O)=O [Compound 27, (R)-4-(2-(1H-benzo[d]imidazol-2-yl)-7-(methylsulfonyl)-7H-pyrrolo[2,3-d]pyrimidin-4-yl)-3-methylmorpholine] the IC50 [1] was 620 nM and the “Max Inhibition” value [1] was 94%.
Work on CNc1nc2ccccc2n1-c1nc(N2CCOC[C@H]2C)c2ccn(S(C)(=O)=O)c2n1 [Compound 28, (R)—N-methyl-1-(4-(3-methylmorpholinyl)-7-(methylsulfonyl)-7H-pyrrolo[2,3-d]pyrimidin-2-yl)-1H-benzo[d]imidazol-2-amine] yielded an IC50 [1] of 100 nM and an Emax [1] of 92%.
With Cc1cc(-c2nc(N3CCOC[C@H]3C)c3ccn(S(C)(=O)=O)c3n2)c2cc[nH]c2c1 [Compound 29, (R)-3-methyl-4-(2-(6-methyl-1H-indol-4-yl)-7-(methylsulfonyl)-7H-pyrrolo[2,3-d]pyrimidin-4-yl)morpholine] the IC50 [1] was 380 nM and the “Max Inhibition” value [1] was 94%.
C[C@@H]1COCCN1c1nc(-c2cc(C#N)cc3[nH]ccc23)nc2c1ccn2S(C)(=O)=O [Compound 30, (R)-4-(4-(3-methylmorpholinyl)-7-(methylsulfonyl)-7H-pyrrolo[2,3-d]pyrimidin-2-yl)-1H-indol-6-carbonitrile] gave an IC50 [1] of 1060 nM and an Emax [1] of 93%.
With C[C@@H]1COCCN1c1nc(-c2cc(Cl)cc3[nH]ccc23)nc2c1ccn2S(C)(=O)=O [Compound 31, (R)-4-(2-(6-chloro-1H-indol-4-yl)-7-(methylsulfonyl)-7H-pyrrolo[2,3-d]pyrimidin-4-yl)-3-methylmorpholine] the IC50 [1] was 570 nM and the “Max Inhibition” value [1] was 93%.
COc1cc(-c2nc(N3CCOC[C@H]3C)c3ccn(S(C)(=O)=O)c3n2)c2cc[nH]c2c1 [Compound 32, (R)-4-(2-(6-methoxy-1H-indol-4-yl)-7-(methylsulfonyl)-7H-pyrrolo[2,3-d]pyrimidin-4-yl)-3-methylmorpholine] was tested, and the IC50 [1] was 340 nM and the “Max Inhibition” value [1] was 95%.
In the case of CCS(=O)(=O)n1ccc2c(N3CCOC[C@H]3C)nc(-c3ccnc4[nH]ccc34)nc21 [Compound 33, (R)-4-(7-(ethylsulfonyl)-2-(1H-pyrrolo[2,3-b]pyridin-4-yl)-7H-pyrrolo[2,3-d]pyrimidin-4-yl)-3-methylmorpholine], the IC50 [1] is reported as 290 nM and the “Max Inhibition” value [1] is reported as 92%.
Molecule C[C@@H]1COCCN1c1nc(-c2ccnc3[nH]ccc23)nc2c1ccn2S(=O)(=O)N(C)C [Compound 34, (R)—N,N-dimethyl-4-(3-methylmorpholinyl)-2-(1H-pyrrolo[2,3-b]pyridin-4-yl)-7H-pyrrolo[2,3-d]pyrimidine-7-sulfamide] has an IC50 (LoVo, 96 h) of 290 nM and an Emax (LoVo, 96 h) of 93%.
